# Assay results published in US6914045B2, “Glycopeptide antibiotics” (Wyeth Holdings Corporation, priority 2001, dated 2005).
# How the values were obtained:
# Assay in all cases: in vitro antibacterial evaluation, MIC by broth dilution
# Assay type in all cases: cell-based
# Escherichia coli = details: for MIC Escherichia coli (ATCC 25922): strain ATCC 25922, 18 hours at 35° C.; for MIC Escherichia coli (GC 4559): strain GC 4559, 18 hours at 35° C.; for MIC Escherichia coli (GC 4560): strain GC 4560, 18 hours at 35° C.
# Outline: (§1)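 Read-out: the lowest concentration at which the test strain fails to grow. Serial dilutions (64-0.06 μg/mL) in Muller-Hinton II […], 5×10^5 CFU/mL inoculum, NCCLS M7-A2 procedure.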
# Enterococcus sp. = details: broth dilution, 18 hours at 35° C.; for MIC Enterococcus faecalis (ATCC 29212): strain ATCC 29212; for MIC Enterococcus faecalis (GC 2242): strain GC 2242; for MIC Enterococcus faecium (GC 2243): strain GC 2243; for MIC Enterococcus faecalis (GC 2691): strain GC 2691; for MIC Enterococcus faecalis (GC 3059): strain GC 3059; for MIC Enterococcus faecalis (GC 4552): strain GC 4552; for MIC Enterococcus faecalis (GC 4553): strain GC 4553; for MIC Enterococcus faecalis (GC 4554): strain GC 4554; for MIC Enterococcus faecium (GC 4556): strain GC 4556; for MIC Enterococcus faecium (GC 4557): strain GC 4557; for MIC Enterococcus avium (GC 4558): strain GC 4558; for MIC Enterococcus faecalis (GC 6189): strain GC 6189
# Outline: as §1
# Streptococcus sp. = details: broth dilution, 18 hours at 35° C.; for MIC Streptococcus pneumoniae (ATCC 6301): strain ATCC 6301; for MIC Streptococcus pneumoniae (GC 1894): strain GC 1894; for MIC Streptococcus pyogenes (GC 4563): strain GC 4563; for MIC Streptococcus agalactiae (GC 4564): strain GC 4564; for MIC Streptococcus pneumoniae (GC 4565): strain GC 4565
# Outline: as §1
# Staphylococcus sp. = test system: Staphylococcus sp.
# Outline: as §1
# [1] = broth dilution, 18 hours at 35° C., inoculum 5×10^5 CFU/mL; strain GC 1131
# [2] = broth dilution, 18 hours at 35° C.; strain ATCC 29213
# [3] = broth dilution, 18 hours at 35° C.; strain GC 1131
# [4] = broth dilution, 18 hours at 35° C.; strain GC 3051
# [5] = broth dilution, 18 hours at 35° C.; strain GC 3053
# [6] = broth dilution, 18 hours at 35° C.; strain GC 4541
# [7] = broth dilution, 18 hours at 35° C.; strain GC 4542
# [8] = broth dilution, 18 hours at 35° C.; strain GC 4544
# [9] = broth dilution, 18 hours at 35° C.; strain GC 4545
smiles,measurement,setting,value
CC(c1ccccc1)C1NC(=O)CNC(=O)C(CO)NC(=O)C(C(O)C2CNC(=N)N2C2OC(CO)C(O)C(O)C2O)NC(=O)C(C(O)C2CNC(=N)N2)NC(=O)C(Cc2ccc(OC3OC(CO)C(OC4OC5COC(c6cccc(OCc7ccc([N+](=O)[O-])cc7)c6)OC5C(O)C4O)C(O)C3O)cc2)NC1=O (stereo not shown) [Example 182],MIC Escherichia coli (ATCC 25922),Escherichia coli,>64 µg/mL
same,MIC Escherichia coli (GC 4559),Escherichia coli,>64 µg/mL
same,MIC Escherichia coli (GC 4560),Escherichia coli,>64 µg/mL
same,MIC Enterococcus faecalis (ATCC 29212),Enterococcus sp.; inoculum 5×10^5 CFU/mL,>64 µg/mL
same,MIC Enterococcus faecalis (GC 2242),Enterococcus sp.; inoculum 5×10^5 CFU/mL,>64 µg/mL
same,MIC Enterococcus faecium (GC 2243),Enterococcus sp.; inoculum 5×10^5 CFU/mL,>64 µg/mL
same,MIC Enterococcus faecalis (GC 2691),Enterococcus sp.; inoculum 5×10^5 CFU/mL,>64 µg/mL
same,MIC Enterococcus faecalis (GC 3059),Enterococcus sp.; inoculum 5×10^5 CFU/mL,>64 µg/mL
same,MIC Enterococcus faecalis (GC 4552),Enterococcus sp.; inoculum 5×10^5 CFU/mL,>64 µg/mL
same,MIC Enterococcus faecalis (GC 4553),Enterococcus sp.; inoculum 5×10^5 CFU/mL,>64 µg/mL
same,MIC Enterococcus faecalis (GC 4554),Enterococcus sp.; inoculum 5×10^5 CFU/mL,>64 µg/mL
same,MIC Enterococcus faecium (GC 4556),Enterococcus sp.; inoculum 5×10^5 CFU/mL,>64 µg/mL
same,MIC Enterococcus faecium (GC 4557),Enterococcus sp.; inoculum 5×10^5 CFU/mL,>64 µg/mL
same,MIC Enterococcus avium (GC 4558),Enterococcus sp.; inoculum 5×10^5 CFU/mL,>64 µg/mL
same,MIC Enterococcus faecalis (GC 6189),Enterococcus sp.; inoculum 5×10^5 CFU/mL,>64 µg/mL
same,MIC Enterococcus faecalis (ATCC 29212),Enterococcus sp.,>64 µg/mL
same,MIC Enterococcus faecalis (GC 2242),Enterococcus sp.,>64 µg/mL
same,MIC Enterococcus faecium (GC 2243),Enterococcus sp.,>64 µg/mL
same,MIC Enterococcus faecalis (GC 2691),Enterococcus sp.,>64 µg/mL
same,MIC Enterococcus faecalis (GC 3059),Enterococcus sp.,>64 µg/mL
same,MIC Enterococcus faecalis (GC 4552),Enterococcus sp.,>64 µg/mL
same,MIC Enterococcus faecalis (GC 4553),Enterococcus sp.,>64 µg/mL
same,MIC Enterococcus faecalis (GC 4554),Enterococcus sp.,>64 µg/mL
same,MIC Enterococcus faecium (GC 4556),Enterococcus sp.,>64 µg/mL
same,MIC Enterococcus faecium (GC 4557),Enterococcus sp.,>64 µg/mL
same,MIC Enterococcus avium (GC 4558),Enterococcus sp.,>64 µg/mL
same,MIC Enterococcus faecalis (GC 6189),Enterococcus sp.,>64 µg/mL
same,MIC Streptococcus pneumoniae (ATCC 6301),Streptococcus sp.; inoculum 5×10^5 CFU/mL,4 µg/mL
same,MIC Streptococcus pneumoniae (GC 1894),Streptococcus sp.; inoculum 5×10^5 CFU/mL,8 µg/mL
same,MIC Streptococcus pyogenes (GC 4563),Streptococcus sp.; inoculum 5×10^5 CFU/mL,64 µg/mL
same,MIC Streptococcus agalactiae (GC 4564),Streptococcus sp.; inoculum 5×10^5 CFU/mL,32 µg/mL
same,MIC Streptococcus pneumoniae (GC 4565),Streptococcus sp.; inoculum 5×10^5 CFU/mL,8 µg/mL
same,MIC Streptococcus pneumoniae (ATCC 6301),Streptococcus sp.,4 µg/mL
same,MIC Streptococcus pneumoniae (GC 1894),Streptococcus sp.,8 µg/mL
same,MIC Streptococcus pyogenes (GC 4563),Streptococcus sp.,64 µg/mL
same,MIC Streptococcus agalactiae (GC 4564),Streptococcus sp.,32 µg/mL
same,MIC Streptococcus pneumoniae (GC 4565),Streptococcus sp.,8 µg/mL
same,MIC Staphylococcus aureus (GC 1131),Staphylococcus sp.; [1],>64 µg/mL
same,MIC Staphylococcus aureus (ATCC 29213),Staphylococcus sp.; [2],>64 µg/mL
same,MIC Staphylococcus aureus (GC 1131),Staphylococcus sp.; [3],>64 µg/mL
same,MIC Staphylococcus aureus (GC 3051),Staphylococcus sp.; [4],>64 µg/mL
same,MIC Staphylococcus aureus (GC 3053),Staphylococcus sp.; [5],>64 µg/mL
same,MIC Staphylococcus aureus (GC 4541),Staphylococcus sp.; [6],>64 µg/mL
same,MIC Staphylococcus aureus (GC 4542),Staphylococcus sp.; [7],>64 µg/mL
same,MIC Staphylococcus aureus (GC 4544),Staphylococcus sp.; [8],>64 µg/mL
same,MIC Staphylococcus aureus (GC 4545),Staphylococcus sp.; [9],>64 µg/mL
same,MIC Staphylococcus aureus-SMITH (GC 4543),"Staphylococcus sp.; strain GC 4543; broth dilution, 18 hours at 35° C.",>64 µg/mL
same,MIC Staphylococcus haemolyticus (GC 4546),"Staphylococcus sp.; strain GC 4546; broth dilution, 18 hours at 35° C.",>64 µg/mL
same,MIC Coagulase Negative Staphylococcus (GC 4547),"Staphylococcus sp.; strain GC 4547; broth dilution, 18 hours at 35° C.",>64 µg/mL
same,MIC Coagulase Negative Staphylococcus (GC 4548),"Staphylococcus sp.; strain GC 4548; broth dilution, 18 hours at 35° C.",>64 µg/mL
same,MIC Coagulase Negative Staphylococcus (GC 4549),"Staphylococcus sp.; strain GC 4549; broth dilution, 18 hours at 35° C.",>64 µg/mL
same,MIC Coagulase Negative Staphylococcus (GC 4551),"Staphylococcus sp.; strain GC 4551; broth dilution, 18 hours at 35° C.",>64 µg/mL
same,MIC Coagulase Negative Staphylococcus (GC 6257),"Staphylococcus sp.; strain GC 6257; broth dilution, 18 hours at 35° C.",>64 µg/mL
CCOc1cc(C2OCC3OC(OC4C(CO)OC(Oc5ccc(CC6NC(=O)C(C(C)c7ccccc7)NC(=O)CNC(=O)C(CO)NC(=O)C(C(O)C7CNC(=N)N7C7OC(CO)C(O)C(O)C7O)NC(=O)C(C(O)C7CNC(=N)N7)NC6=O)cc5)C(O)C4O)C(O)C(O)C3O2)ccc1[N+](=O)[O-] (stereo not shown) [Example 167],MIC Escherichia coli (ATCC 25922),Escherichia coli,>128 µg/mL
same,MIC Escherichia coli (GC 4559),Escherichia coli,>128 µg/mL
same,MIC Escherichia coli (GC 4560),Escherichia coli,8 µg/mL
same,MIC Enterococcus faecalis (ATCC 29212),Enterococcus sp.; inoculum 5×10^5 CFU/mL,32 µg/mL
same,MIC Enterococcus faecalis (GC 2242),Enterococcus sp.; inoculum 5×10^5 CFU/mL,32 µg/mL
same,MIC Enterococcus faecium (GC 2243),Enterococcus sp.; inoculum 5×10^5 CFU/mL,32 µg/mL
same,MIC Enterococcus faecalis (GC 2691),Enterococcus sp.; inoculum 5×10^5 CFU/mL,32 µg/mL
same,MIC Enterococcus faecalis (GC 3059),Enterococcus sp.; inoculum 5×10^5 CFU/mL,32 µg/mL
same,MIC Enterococcus faecalis (GC 4552),Enterococcus sp.; inoculum 5×10^5 CFU/mL,32 µg/mL
same,MIC Enterococcus faecalis (GC 4553),Enterococcus sp.; inoculum 5×10^5 CFU/mL,32 µg/mL
same,MIC Enterococcus faecalis (GC 4554),Enterococcus sp.; inoculum 5×10^5 CFU/mL,32 µg/mL
same,MIC Enterococcus faecium (GC 4556),Enterococcus sp.; inoculum 5×10^5 CFU/mL,32 µg/mL
same,MIC Enterococcus faecium (GC 4557),Enterococcus sp.; inoculum 5×10^5 CFU/mL,8 µg/mL
same,MIC Enterococcus avium (GC 4558),Enterococcus sp.; inoculum 5×10^5 CFU/mL,32 µg/mL
same,MIC Enterococcus faecalis (GC 6189),Enterococcus sp.; inoculum 5×10^5 CFU/mL,32 µg/mL
same,MIC Enterococcus faecalis (ATCC 29212),Enterococcus sp.,32 µg/mL
same,MIC Enterococcus faecalis (GC 2242),Enterococcus sp.,32 µg/mL
same,MIC Enterococcus faecium (GC 2243),Enterococcus sp.,32 µg/mL
same,MIC Enterococcus faecalis (GC 2691),Enterococcus sp.,32 µg/mL
same,MIC Enterococcus faecalis (GC 3059),Enterococcus sp.,32 µg/mL
same,MIC Enterococcus faecalis (GC 4552),Enterococcus sp.,32 µg/mL
same,MIC Enterococcus faecalis (GC 4553),Enterococcus sp.,32 µg/mL
same,MIC Enterococcus faecalis (GC 4554),Enterococcus sp.,32 µg/mL
same,MIC Enterococcus faecium (GC 4556),Enterococcus sp.,32 µg/mL
same,MIC Enterococcus faecium (GC 4557),Enterococcus sp.,8 µg/mL
same,MIC Enterococcus avium (GC 4558),Enterococcus sp.,32 µg/mL
same,MIC Enterococcus faecalis (GC 6189),Enterococcus sp.,32 µg/mL
same,MIC Streptococcus pneumoniae (ATCC 6301),Streptococcus sp.; inoculum 5×10^5 CFU/mL,1 µg/mL
same,MIC Streptococcus pneumoniae (GC 1894),Streptococcus sp.; inoculum 5×10^5 CFU/mL,0.25 µg/mL
same,MIC Streptococcus pyogenes (GC 4563),Streptococcus sp.; inoculum 5×10^5 CFU/mL,1 µg/mL
same,MIC Streptococcus agalactiae (GC 4564),Streptococcus sp.; inoculum 5×10^5 CFU/mL,2 µg/mL
same,MIC Streptococcus pneumoniae (GC 4565),Streptococcus sp.; inoculum 5×10^5 CFU/mL,1 µg/mL
same,MIC Streptococcus pneumoniae (ATCC 6301),Streptococcus sp.,1 µg/mL
same,MIC Streptococcus pneumoniae (GC 1894),Streptococcus sp.,0.25 µg/mL
same,MIC Streptococcus pyogenes (GC 4563),Streptococcus sp.,1 µg/mL
same,MIC Streptococcus agalactiae (GC 4564),Streptococcus sp.,2 µg/mL
same,MIC Streptococcus pneumoniae (GC 4565),Streptococcus sp.,1 µg/mL
same,MIC Staphylococcus aureus (GC 1131),Staphylococcus sp.; [1],16 µg/mL
same,MIC Staphylococcus aureus (ATCC 29213),Staphylococcus sp.; [2],16 µg/mL
same,MIC Staphylococcus aureus (GC 1131),Staphylococcus sp.; [3],16 µg/mL
same,MIC Staphylococcus aureus (GC 3051),Staphylococcus sp.; [4],16 µg/mL
same,MIC Staphylococcus aureus (GC 3053),Staphylococcus sp.; [5],16 µg/mL
same,MIC Staphylococcus aureus (GC 4541),Staphylococcus sp.; [6],8 µg/mL
same,MIC Staphylococcus aureus (GC 4542),Staphylococcus sp.; [7],16 µg/mL
same,MIC Staphylococcus aureus-SMITH (GC 4543),"Staphylococcus sp.; broth dilution, 18 hours at 35° C.; strain GC 4543",16 µg/mL
same,MIC Staphylococcus aureus (GC 4544),Staphylococcus sp.; [8],16 µg/mL
same,MIC Staphylococcus aureus (GC 4545),Staphylococcus sp.; [9],16 µg/mL
same,MIC Staphylococcus haemolyticus (GC 4546),"Staphylococcus sp.; broth dilution, 18 hours at 35° C.; strain GC 4546",16 µg/mL
same,MIC Coagulase Negative Staphylococcus (GC 4547),"Staphylococcus sp.; broth dilution, 18 hours at 35° C.; strain GC 4547",8 µg/mL
same,MIC Coagulase Negative Staphylococcus (GC 4548),"Staphylococcus sp.; broth dilution, 18 hours at 35° C.; strain GC 4548",8 µg/mL
same,MIC Coagulase Negative Staphylococcus (GC 4549),"Staphylococcus sp.; broth dilution, 18 hours at 35° C.; strain GC 4549",8 µg/mL
same,MIC Coagulase Negative Staphylococcus (GC 4551),"Staphylococcus sp.; broth dilution, 18 hours at 35° C.; strain GC 4551",16 µg/mL
same,MIC Coagulase Negative Staphylococcus (GC 6257),"Staphylococcus sp.; broth dilution, 18 hours at 35° C.; strain GC 6257",8 µg/mL
